System: whole blood
Experiment: ROTEM blood coagulation analysis, blood collection tube with rubber stopper, Example 3
Type: cell-based, human
Conditions: heparan sulfate 1 μg/mL with calcium chloride, CTI 20 μg/mL, PKSI-527 40 μM (reagent (2))
Method: The present invention will be more specifically described below by referring to Examples, but the present invention is not limited to the embodiments below. The blood samples used in the Examples were collected from healthy humans unless otherwise described.
ROTEM (IL) was used to analyze blood coagulation.
Blood was collected using a blood collection tube (2 mL) containing 3.2% sodium citrate manufactured by Becton, Dickinson and Company. A rubber stopper is used for this blood collection tube. […]

heparan sulfate
coagulation-promoting effect of the rubber stopper: can be inhibited
